In PMC5607274, “An iterative compound screening contest method for identifying target protein inhibitors using the tyrosine-protein kinase Yes” (Scientific Reports, 2017):

target: T1, human recombinant Yes [a.a. 2–543 (end)] (Homo sapiens, UniProt P07947); assay: ADP-Glo kinase assay, inhibition rates of Yes phosphorylation activity (first and second screening); type: biochemical; conditions: first screening; mean of n = 4 wells; 10 μmol L−1 compound
T1 construct: human recombinant Yes [a.a; 2–543 (end)]; purchased BPS Bioscience 40488
In short: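 Hits from a first pass were rescreened after re-dissolution from fresh powder. The first pass reported the mean inhibition rate of quadruplicate wells per compound. Activity was that of recombinant human Yes [a.a. 2–543] kinase, read out with the ADP-Glo ADP-detection method.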

T1 sequence (P07947 2-543): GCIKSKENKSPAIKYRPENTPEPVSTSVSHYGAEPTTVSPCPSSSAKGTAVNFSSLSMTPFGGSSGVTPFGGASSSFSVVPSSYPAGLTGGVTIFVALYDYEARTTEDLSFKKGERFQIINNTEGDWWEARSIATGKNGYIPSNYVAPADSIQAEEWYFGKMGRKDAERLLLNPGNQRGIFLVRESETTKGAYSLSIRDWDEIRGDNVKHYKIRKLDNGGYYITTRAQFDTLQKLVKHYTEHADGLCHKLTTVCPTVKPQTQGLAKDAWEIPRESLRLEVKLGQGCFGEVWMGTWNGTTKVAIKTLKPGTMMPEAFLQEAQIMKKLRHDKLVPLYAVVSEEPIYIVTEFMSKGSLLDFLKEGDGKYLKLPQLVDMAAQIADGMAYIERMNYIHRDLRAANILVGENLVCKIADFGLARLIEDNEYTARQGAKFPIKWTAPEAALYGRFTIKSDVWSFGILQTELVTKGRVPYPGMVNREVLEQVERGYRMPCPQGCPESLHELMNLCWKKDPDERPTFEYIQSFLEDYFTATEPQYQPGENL

First: Cn1c(C(=O)Nc2ccc(NC(=O)c3ccco3)c(Cl)c2)cc2ccccc21 [Compound Z751335838]
Second: Cn1c(C(=O)Oc2ccc(NC(=O)c3ccco3)cc2)cc2ccccc21 [Compound Z762214972]
The “First screening IR (inhibition rate)” value of the first is higher: 55% for the first, -1% for the second.

Compared with `Cc1nc(NCCn2cccn2)c2cnn(-c3ccccc3)c2n1` [Compound Z751573116], `Cc1nc(NCC2CCN(c3ccc(F)cc3)C2)c2cnn(C)c2n1` (stereo not shown) [Compound Z815820560] is lower in “First screening IR (inhibition rate)” value: 14% for the first, -4% for the second.

Compared with `O=C(Nc1cc(Cl)cc(Br)c1OC(F)F)C(=O)N1CCCSCC1` [Compound Z754942410], `COc1ccc(C(=O)N2CCCC2)cc1NC(=O)CC1CCCC1` [Compound Z913725738] is lower in “First screening IR (inhibition rate)” value: 13% for the first, 7% for the second.

Going from `Cn1ccnc1C(O)(CC(=O)Nc1ccc(Oc2ncccn2)cc1)C(F)(F)F` (stereo not shown) [Compound Z757638538] to `CCOC(=O)N(C)c1ccc(Nc2nccc(C(F)(F)F)n2)cc1` [Compound Z805455424], the “First screening IR (inhibition rate)” value falls from -7% to -19%.

First: O=C(Nc1ccc2nc(-c3ccco3)[nH]c2c1)c1ccc(Cl)nc1 [Compound Z757780044]
Second: O=C(Nc1cnc2ccccc2c1)c1ccc(-n2ccc(C(F)(F)F)n2)cc1 [Compound Z815840280]
The “First screening IR (inhibition rate)” value of the first is higher: 51% for the first, 9% for the second.

Going from `O=C1CCc2cc(OC(=O)c3cn(-c4ccccc4)nc3-c3cccs3)ccc2N1` [Compound Z764721614] to `O=C(Oc1cccnc1Br)c1nn(-c2ccccc2)c(=O)c2ccccc12` [Compound Z817738176], the “First screening IR (inhibition rate)” value falls from 63% to 23%.

First: NC(=O)Nc1ccc(-c2csc(CCc3ccccc3)n2)cc1 [Compound Z785638578]
Second: CC(=O)Nc1ccc(/C=C/C(=O)c2ccccc2-n2cccn2)cc1 [Compound Z839413590]
The “First screening IR (inhibition rate)” value of the first is higher: 0% for the first, -15% for the second.

First: Cc1noc(C)c1COC(=O)c1c[nH]cc1-c1ccc(Cl)s1 [Compound Z796939908]
Second: O=C(OCc1noc(C2CC2)n1)c1c[nH]cc1-c1ccc(Cl)s1 [Compound Z847574324]
The “First screening IR (inhibition rate)” value of the first is lower: 0% for the first, 10% for the second.

Compared with `NCCN1C(=O)C2C3C=CC(C3)C2C1=O` (stereo not shown) [Compound Z803067872], `CS(=O)(=O)CCS(=O)(=O)c1ccc(N)cc1` [Compound Z808591212] is lower in “First screening IR (inhibition rate)” value: 7% for the first, -1% for the second.

Compared with `CCS(=O)(=O)N1CCN(S(=O)(=O)C2CCS(=O)(=O)C2)CC1` (stereo not shown) [Compound Z805634984], `CCCN(C1CCS(=O)(=O)C1)S(=O)(=O)CCC` (stereo not shown) [Compound Z830071152] is higher in “First screening IR (inhibition rate)” value: 2% for the first, 16% for the second.

`CN(c1ccc(I)cc1)S(=O)(=O)c1cn[nH]c1` [Compound Z805651486] and `COc1ccc(N(C)C(=O)c2[nH]nc(-c3ccccc3)c2Br)cn1` [Compound Z934680220] are the same in “First screening IR (inhibition rate)” value: -1% for the first, -1% for the second.

Compared with `O=C(c1ccc(OCC2CC2)cc1)N1CCC(c2nnc3n2CCC3)CC1` [Compound Z809056560], `CC1CCN(c2ccc([N+](=O)[O-])cc2C(=O)N2CCN(Cc3cn4cc(Cl)ccc4n3)CC2)CC1` [Compound Z901305410] is lower in “First screening IR (inhibition rate)” value: 2% for the first, -17% for the second.

Going from `O=C1Cc2cc(S(=O)(=O)N3CCCc4cccc(OC(F)F)c43)ccc2N1` [Compound Z815677014] to `CC(Oc1cccc(Cl)c1Cl)C(=O)Nc1ccc2nc[nH]c(=O)c2c1` (stereo not shown) [Compound Z927306002], the “First screening IR (inhibition rate)” value falls from -4% to -9%.

First: CCCN1CCN(c2ccc(Nc3ccc4nnnn4n3)cc2Cl)CC1 [Compound Z815791244]
Second: CCN1CCN(c2cc(CNC(=O)c3cn(-c4ccccc4)nc3-c3ccc(OC)cc3)ccn2)CC1 [Compound Z955363064]
The “First screening IR (inhibition rate)” value of the first is lower: -24% for the first, -5% for the second.

Going from `Cc1cc(NCC(O)COc2ccc(F)cc2)nc2ccccc12` (stereo not shown) [Compound Z815806580] to `COc1ccccc1-c1cc(NC(=O)c2ccc(Cn3cncn3)cc2)n[nH]1` [Compound Z927972178], the “First screening IR (inhibition rate)” value rises from -15% to 13%.

Compared with `NC(=O)c1ccc(COc2ccc(I)cc2)c(F)c1` [Compound Z816021628], `CCOC(=O)COc1ccc(C2(C)NC(=O)c3cc(Cl)ccc3N2)cc1` (stereo not shown) [Compound Z839958866] is higher in “First screening IR (inhibition rate)” value: -2% for the first, 5% for the second.

Compared with `Cn1ncc2c(N3CCCC3CO)ncnc21` (stereo not shown) [Compound Z817034034], `Oc1cccc(CN(c2ncnc3ccsc23)C2CC2)c1` [Compound Z826941792] is lower in “First screening IR (inhibition rate)” value: 3% for the first, 1% for the second.

Going from `Cn1c(=O)c2cc(C(=O)Nc3ccc(F)c(Cl)c3)sc2n(C)c1=O` [Compound Z818806818] to `CC(C)(C)c1ncc(C(=O)Nc2ccc(F)c(NC(=O)C3CC3)c2)s1` [Compound Z825945954], the “First screening IR (inhibition rate)” value falls from -3% to -24%.

Compared with `CC(C)(C)c1[nH]ncc1/C=C1/CCn2c1nc1cc(Cl)ccc1c2=O` [Compound Z821199838], `COC(=O)c1sc2ncc(/C=C3\C(=O)Nc4ccccc43)cc2c1C` [Compound Z872035512] is lower in “First screening IR (inhibition rate)” value: -3% for the first, -4% for the second.

Compared with `Cc1cccc(CS(=O)(=O)CCS(C)(=O)=O)c1` [Compound Z822335078], `CC(C)c1cccc(N(C)C(=O)c2cccnc2S(=O)(=O)C(F)(F)F)c1` [Compound Z959760312] is higher in “First screening IR (inhibition rate)” value: -2% for the first, 32% for the second.

Compared with `CS(=O)(=O)c1ccc(C(=O)NCc2ccc(-n3ccnc3)c(F)c2)cc1` [Compound Z826157056], `CC(C)n1ncc2cc(C(=O)NCc3ccc(-n4ccnc4)c(F)c3)cnc21` [Compound Z826159196] is higher in “First screening IR (inhibition rate)” value: -29% for the first, 9% for the second.

First: Cc1cccc(NC(=O)CN2CCN(C(=O)CN3C(=O)Cn4c(cc5ccccc54)C3=O)CC2)c1C [Compound Z826666316]
Second: O=C(CN1CCN(C(=O)c2oc3ccccc3c2CSc2nccc(=O)[nH]2)CC1)N1CCCCC1 [Compound Z915764402]
The “First screening IR (inhibition rate)” value of the first is lower: -25% for the first, -15% for the second.

Going from `Cc1cc(NC(=O)c2ccn(-c3ccccc3)n2)n(CCC#N)n1` [Compound Z826713438] to `Cc1cc(NC(=O)c2cc(-c3cccs3)on2)n(CCC#N)n1` [Compound Z908095506], the “First screening IR (inhibition rate)” value falls from 5% to -3%.

Compared with `Cc1cc(NC(=O)/C=C/c2csc(C)n2)n(CCC#N)n1` [Compound Z826713788], `Cc1cc(NC(=O)c2cc3c(F)cccc3s2)n(CCC#N)n1` [Compound Z826713980] is higher in “First screening IR (inhibition rate)” value: -15% for the first, -5% for the second.

Going from `Cc1nn(C)c2nc(-c3ccccc3)cc(C(=O)Nc3ccc4nc(CN5CCOCC5)[nH]c4c3)c12` [Compound Z826860216] to `COc1ccc(CN2CCC(CNC(=O)c3ccccc3SCc3c(C)noc3C)CC2)cc1` [Compound Z914096084], the “First screening IR (inhibition rate)” value falls from 35% to -7%.

Compared with `O=S1(=O)CCC(N2CCN(Cc3cc(Cl)cc(C4CCCCC4)c3O)CC2)C1` (stereo not shown) [Compound Z827167912], `Cc1sc2nc(CN3CCC(C)CC3)nc(N3CCCN(C(=O)Cc4ccccn4)CC3)c2c1C` [Compound Z915925636] is lower in “First screening IR (inhibition rate)” value: 7% for the first, 0% for the second.

First: CC1CN(C(=O)Nc2ccccn2)CCN1C(=O)Nc1ccccn1 (stereo not shown) [Compound Z827524892]
Second: Cc1noc(C(C)NC(=O)C2CSCN2C(=O)c2ccccc2)n1 (stereo not shown) [Compound Z954394146]
The “First screening IR (inhibition rate)” value of the first is lower: -21% for the first, -12% for the second.

Compared with `Cc1cccc(C)c1OCC(O)CNc1ncnc2sc(C)c(C)c12` (stereo not shown) [Compound Z838103434], `COC(=O)c1sc2ncc(/C=C/C(=O)c3cccnc3)cc2c1C` [Compound Z871886494] is higher in “First screening IR (inhibition rate)” value: 13% for the first, 66% for the second.

Going from `O=C(N/N=C/C=C/c1ccco1)c1ccc(-c2ccc(F)cc2)s1` [Compound Z839335172] to `O=C(Nc1cc(-c2ccc(Br)s2)[nH]n1)c1ccc2c(c1)COC2` [Compound Z956276516], the “First screening IR (inhibition rate)” value rises from 6% to 68%.

Going from `CCc1c(C(=O)CN2CCCC2c2ccsc2)[nH]c(C)c1C(C)=O` (stereo not shown) [Compound Z839968520] to `Cc1c(NC(=O)C2CC(=O)N(c3ccc4c(c3)CCC4)C2)n[nH]c1C1CC1` (stereo not shown) [Compound Z954497746], the “First screening IR (inhibition rate)” value falls from 0% to -9%.

Going from `Cc1cc(C)n(C(C)C(=O)Nc2ccc(NC(=O)C(C)(C)C)cc2Cl)n1` (stereo not shown) [Compound Z850607168] to `COc1cc(NC(=O)Cc2c(C)[nH]c3ccccc23)c(C(N)=O)cc1OC` [Compound Z917537988], the “First screening IR (inhibition rate)” value falls from 3% to -25%.

First: C/C(=C\C(=O)N1CCN(c2cnccn2)CC1)C12CC3CC(CC(C3)C1)C2 [Compound Z850748812]
Second: Cc1c(C(=O)N(C2CCC(C)CC2)C2CC2)cnn1-c1ccc(=O)[nH]n1 (stereo not shown) [Compound Z908597782]
The “First screening IR (inhibition rate)” value of the first is higher: 12% for the first, -8% for the second.

Compared with `NC(=O)C1(CNC(=O)c2cc3c(cc2O)CCCC3)CCOCC1` [Compound Z856541214], `CN1CCC(N(C)c2ccc(NC(=O)c3c(O)cc(F)cc3F)cc2)CC1` [Compound Z910632940] is lower in “First screening IR (inhibition rate)” value: 17% for the first, 6% for the second.

Compared with `Cc1nc(-c2ccncc2)[nH]c(=O)c1CCC(=O)NCc1ccncc1` [Compound Z873001918], `O=c1[nH]ncc(NCc2ccc(Cn3cnc4ccccc43)cc2)c1Cl` [Compound Z951371090] is lower in “First screening IR (inhibition rate)” value: 12% for the first, 5% for the second.

Compared with `FC(F)(F)c1ccnc(Nc2ccc3nc(C4CC4)sc3c2)n1` [Compound Z929767438], `CCOc1ccc(C(=O)Nc2ccc3c(c2)C(=O)NC3)cc1OCC` [Compound Z943285536] is higher in “First screening IR (inhibition rate)” value: -3% for the first, 18% for the second.

same assay, conditions: second screening, dissolved from fresh powder; n = 4; 10 μmol L−1 compound

Going from `O=C1CCc2cc(OC(=O)c3cn(-c4ccccc4)nc3-c3cccs3)ccc2N1` [Compound Z764721614] to `Cc1nn(C)c2nc(-c3ccccc3)cc(C(=O)Nc3ccc4nc(CN5CCOCC5)[nH]c4c3)c12` [Compound Z826860216], the “Second screening IR (inhibition rate)” value falls from -5% to -11%.

`COC(=O)c1sc2ncc(/C=C/C(=O)c3cccnc3)cc2c1C` [Compound Z871886494] was tested, and the “Second screening IR (inhibition rate)” value was 12%.
